Experimental data published in ChEMBL document CHEMBL3739395, “Discovery and optimisation of 1-acyl-2-benzylpyrrolidines as potent dual orexin receptor antagonists” (Medchemcomm, 2015).
Converted amounts (≈) assume the structure as drawn. The source made the active and inactive calls. No cut-off for these calls is given here.

Columns and labels:
Orexin receptor type 2 = molecular target: T1, Orexin receptor type 2 (Homo sapiens, UniProt O43614); assay: Inhibition of human orexin-2 receptor expressed in CHO cells assessed as calcium release preincubated for 120 mins followed by addition of orexin-A by fluo-4 AM based-FLIPR analysis; type: functional, cell-based
T1 sequence (O43614 whole entry): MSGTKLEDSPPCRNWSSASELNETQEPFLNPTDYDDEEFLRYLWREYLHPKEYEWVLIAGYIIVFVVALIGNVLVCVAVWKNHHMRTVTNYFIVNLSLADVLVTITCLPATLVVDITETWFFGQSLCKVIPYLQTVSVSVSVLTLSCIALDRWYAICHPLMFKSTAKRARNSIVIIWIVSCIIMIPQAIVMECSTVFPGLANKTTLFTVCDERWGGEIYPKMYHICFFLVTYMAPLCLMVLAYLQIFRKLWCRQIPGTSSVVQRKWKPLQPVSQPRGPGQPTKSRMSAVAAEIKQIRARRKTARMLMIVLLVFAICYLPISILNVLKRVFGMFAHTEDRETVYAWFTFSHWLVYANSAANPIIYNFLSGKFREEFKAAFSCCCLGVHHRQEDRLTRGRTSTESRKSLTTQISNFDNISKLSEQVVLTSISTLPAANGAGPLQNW

[1] = Intrinsic clearance in human liver microsomes at 1 uM; type: ADME; settings: read-out: CLH
[2] = molecular target: T2, Orexin/Hypocretin receptor type 1 (Homo sapiens, UniProt O43613); assay: Inhibition of human orexin-1 receptor expressed in CHO cells assessed as calcium release preincubated for 120 mins followed by addition of orexin-A by fluo-4 AM based-FLIPR analysis; type: functional, cell-based
T2 sequence (O43613 whole entry): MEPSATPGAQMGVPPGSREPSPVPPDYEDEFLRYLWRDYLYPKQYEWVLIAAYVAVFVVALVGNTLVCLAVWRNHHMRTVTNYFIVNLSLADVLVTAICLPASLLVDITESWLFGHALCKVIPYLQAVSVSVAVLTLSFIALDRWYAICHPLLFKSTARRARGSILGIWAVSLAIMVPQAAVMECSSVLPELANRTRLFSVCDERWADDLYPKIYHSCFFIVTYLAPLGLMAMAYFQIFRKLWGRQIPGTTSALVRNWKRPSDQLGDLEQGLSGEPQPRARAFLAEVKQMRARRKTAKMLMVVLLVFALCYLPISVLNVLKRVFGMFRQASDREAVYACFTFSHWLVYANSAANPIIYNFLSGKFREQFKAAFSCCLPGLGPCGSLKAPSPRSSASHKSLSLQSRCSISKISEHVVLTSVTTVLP

[3] = Drug uptake in Wistar rat brain at 100 mg/kg, po measured 3 hrs post dose; type: ADME, organism-based; settings: read-out: Drug uptake
[4] = Drug uptake in Wistar rat cerebrospinal fluid at 100 mg/kg, po measured 3 hrs post dose; type: ADME, organism-based; settings: read-out: Drug uptake
[5] = Ratio of drug level in brain to plasma in Wistar rat at 100 mg/kg, po measured 3 hrs post dose; type: ADME, organism-based; settings: brain and plasma, read-out: BPR
[6] = Intrinsic clearance in rat liver microsomes at 1 uM; type: ADME; settings: read-out: CLH
[7] = Plasma concentration in Wistar rat at 100 mg/kg, po measured 3 hrs post dose; type: ADME, organism-based
[8] = Solubility of compound in unbuffered water at pH 4.1; type: physicochemical
Cytochrome P450 3A4 = Cytochrome P450 3A4 (Homo sapiens, UniProt P08684); assay: Inhibition of CYP3A4 (unknown origin) assessed as testosterone-6beta hydroxylation; type: ADME
Sequence of Cytochrome P450 3A4 (P08684 whole entry): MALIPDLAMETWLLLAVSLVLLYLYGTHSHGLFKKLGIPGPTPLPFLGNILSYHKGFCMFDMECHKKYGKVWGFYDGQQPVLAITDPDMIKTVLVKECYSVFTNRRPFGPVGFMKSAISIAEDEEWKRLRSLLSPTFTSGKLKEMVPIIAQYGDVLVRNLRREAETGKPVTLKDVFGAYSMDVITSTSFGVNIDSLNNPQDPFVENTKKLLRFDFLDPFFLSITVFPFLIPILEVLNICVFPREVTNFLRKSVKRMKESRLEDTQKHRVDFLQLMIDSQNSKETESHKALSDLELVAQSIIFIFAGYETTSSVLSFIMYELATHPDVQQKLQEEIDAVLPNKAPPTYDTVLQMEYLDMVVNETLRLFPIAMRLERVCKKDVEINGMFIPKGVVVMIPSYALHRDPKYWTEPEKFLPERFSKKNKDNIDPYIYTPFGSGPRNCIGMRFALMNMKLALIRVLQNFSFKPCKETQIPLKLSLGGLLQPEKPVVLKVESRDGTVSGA

Rattus norvegicus [9] = assay: Reduction in home cage activity in Wistar rat sleep model at 100 mg/kg, po administered as single dose during first 6 hrs of night active period post dose relative to vehicle control; type: functional; parameters: scale not given: the % may be the effect or the level left
Rattus norvegicus [10] = assay: Sleep promoting effect in Wistar rat sleep model at 100 mg/kg, po administered as single dose during first 6 hrs of night active period post dose relative to vehicle control; type: functional, organism-based
Rattus norvegicus [11] = assay: Reduction in time spent in active wake state in Wistar rat sleep model at 100 mg/kg, po administered as single dose during first 6 hrs of night active period post dose relative to vehicle control; type: functional; parameters: scale not given: the % may be the effect or the level left
Rattus norvegicus [12] = assay: Increase in time spent in quiet wake state in Wistar rat sleep model at 100 mg/kg, po administered as single dose during first 6 hrs of night active period post dose relative to vehicle control; type: functional
Rattus norvegicus [13] = assay: Increase in time spent in non-rapid eye movement sleep in Wistar rat sleep model at 100 mg/kg, po administered as single dose during first 6 hrs of night active period post dose relative to vehicle control; type: functional
Rattus norvegicus [14] = assay: Increase in time spent in rapid eye movement sleep in Wistar rat sleep model at 100 mg/kg, po administered as single dose during first 6 hrs of night active period post dose relative to vehicle control; type: functional
[15] = Clearance in rat; type: ADME, organism-based; settings: in vivo
[16] = Oral bioavailability in rat; type: ADME, organism-based; settings: in vivo
[17] = Lipophilicity, log D of the compound; type: physicochemical; settings: octanol/water

SMILES	IC50 (Orexin receptor type 2) [nM]	microsomal CLint at 1 µM [1] [µL/min/mg]	IC50 [2] [nM]	other results
COc1ccc(CCC2CCCCN2C(=O)c2cc(C)ccc2-n2nccn2)cc1OC (racemic)	16	817	28	
COc1ccc(C[C@@H]2CCCN2C(=O)c2nc(C)sc2-c2ccc(F)cc2)cc1OC	62	216	111	
COc1ccc(C[C@@H]2CCCN2C(=O)c2nc(C)sc2-c2cccc(C)c2)cc1OC	3.1	338	3.5	concentration at 3 h [3]: 125 ng/mL; concentration at 3 h [4]: 6 ng/mL; Kp at 3 h [5]: 0.97; microsomal CLint at 1 µM [6]: > 1250 µL/min/mg; concentration at 3 h [7]: 129 ng/mL
COc1ccc(C[C@@H]2CCCN2C(=O)c2nc(C)sc2-c2cccc(C)c2)cc1Cl	1.8	> 1250	3.8	microsomal CLint at 1 µM [6]: > 1250 µL/min/mg
Cc1cccc(-c2sc(C)nc2C(=O)N2CCC[C@H]2Cc2ccc3c(c2)OCCO3)c1	39	1040	35	
Cc1cccc(-c2sc(C)nc2C(=O)N2CCC[C@H]2Cc2ccc(Cl)c(Cl)c2)c1	66	> 1250	22	
COc1cccc(CCC2CCCCN2C(=O)c2cc(C)ccc2-n2nccn2)c1 (racemic)	243	1170	108	
CCn1cc(C(=O)N2CCc3ccsc3C2Cc2ccc(OC)c(OC)c2)c2ccccc21 (racemic)	1.4	> 1250	5.4	microsomal CLint at 1 µM [6]: > 1250 µL/min/mg; solubility [8]: 7 µg/mL (≈ 15.2 µM); IC50 (Cytochrome P450 3A4): 3000 nM
COc1ccc(C[C@@H]2CCCN2C(=O)c2cc(C)ccc2-n2cccn2)cc1OC	65	> 1250	45	
COc1ccc(C[C@@H]2CCCN2C(=O)c2ccccc2-c2ncccn2)cc1OC	4.7	102	16	concentration at 3 h [3]: 134 ng/mL; concentration at 3 h [4]: 113 ng/mL; Kp at 3 h [5]: 0.18; concentration at 3 h [7]: 737 ng/mL
COc1ccc(CC2CCCCN2C(=O)c2cc(C)ccc2-n2nccn2)cc1OC (racemic)	3.3	616	2.7	
COc1ccc(Cl)c(C[C@@H]2CCCN2C(=O)c2nc(C)sc2-c2cccc(C)c2)c1	18	996	33	microsomal CLint at 1 µM [6]: > 1250 µL/min/mg
COc1ccc(CC2c3sccc3CCN2C(=O)c2cc(C)ccc2-n2nccn2)cc1OC (racemic)	428		131	
COc1cccc(-c2sc(C)nc2C(=O)N2CCC[C@H]2Cc2ccc(OC)c(OC)c2)c1	7.8	300	11	
CCn1cc(C(=O)N2CCCCC2Cc2ccc(OC)c(OC)c2)c2ccccc21 (racemic)	102		28	
CNC(=O)[C@@H](c1ccccc1)N1CCc2cc(OC)c(OC)cc2[C@@H]1CCc1ccc(C(F)(F)F)cc1 [ALMOREXANT]				Activity (Rattus norvegicus [9]): -42%; Activity (Rattus norvegicus [10]): Active; Activity (Rattus norvegicus [11]): -20%; Activity (Rattus norvegicus [12]): -8%; Activity (Rattus norvegicus [13]): 22%; Activity (Rattus norvegicus [14]): 50%
COc1cccc(C[C@@H]2CCCN2C(=O)c2nc(C)sc2-c2cccc(C)c2)c1Cl	16	> 1250	26	microsomal CLint at 1 µM [6]: > 1250 µL/min/mg
COc1ccc(-c2sc(C)nc2C(=O)N2CCC[C@H]2Cc2ccc(OC)c(OC)c2)cc1	10	210	17	
COc1ccc(C[C@@H]2CCCN2C(=O)c2nc(C)sc2-c2ccc3c(c2)CCO3)cc1OC	8	235	8.3	
COc1ccc(C[C@@H]2CCCN2C(=O)c2nc(C)sc2-c2cccc(Cl)c2)cc1OC	6.3	612	9.1	
COc1ccc(C[C@@H]2CCCN2C(=O)c2nccnc2-c2cccc(C)c2)cc1OC	4	158	23	concentration at 3 h [3]: 89 ng/mL; concentration at 3 h [4]: 22 ng/mL; Kp at 3 h [5]: 0.4; concentration at 3 h [7]: 225 ng/mL
Cc1cccc(-c2sc(C)nc2C(=O)N2CCC[C@H]2Cc2ccc(C)c(Cl)c2)c1	10	> 1250	13	microsomal CLint at 1 µM [6]: > 1250 µL/min/mg
Cc1cccc(-c2sc(C)nc2C(=O)N2CCC[C@H]2Cc2ccc3c(c2)OCO3)c1	40	124	64	
Cc1ccc(-n2nccn2)c(C(=O)N2CCN(c3nc4cc(Cl)ccc4o3)CC[C@H]2C)c1 [SUVOREXANT]				Activity (Rattus norvegicus [9]): -31%; Activity (Rattus norvegicus [10]): Active; Activity (Rattus norvegicus [11]): -16%; Activity (Rattus norvegicus [12]): 9%; Activity (Rattus norvegicus [13]): 19%; Activity (Rattus norvegicus [14]): 20%
COc1ccc(C[C@@H]2CCCN2C(=O)c2ccccc2-c2nc(C)no2)cc1OC	12	129	33	
COc1ccc(C[C@@H]2CCCN2C(=O)c2ccccc2-n2nccn2)cc1OC	3.5	104	16	concentration at 3 h [3]: 45 ng/mL; concentration at 3 h [4]: 12 ng/mL; Kp at 3 h [5]: 0.39; microsomal CLint at 1 µM [6]: > 1250 µL/min/mg; concentration at 3 h [7]: 114 ng/mL
COc1cc(C[C@@H]2CCCN2C(=O)c2nc(C)sc2-c2cccc(C)c2)cc(OC)c1	4.3	798	3.4	
COc1ccc(C[C@@H]2CCCN2C(=O)c2cc(C)ccc2-n2nccn2)cc1OC	8.4	356	8.5	microsomal CLint at 1 µM [6]: > 1250 µL/min/mg; solubility [8]: 160 µg/mL (≈ 394 µM); clearance [15]: 55 mL/min/kg; bioavailability [16]: < 10%; logD [17]: 3
COc1ccc(C[C@@H]2CCCN2C(=O)c2nc(C)ccc2-c2ncccn2)cc1OC	71	17	60	
